pIC50: −log10 of the molar value. *1 amine or outer side, *2 acyl side, *3 side chain or, on linkers, in order; H or OH if unused. Where a SMILES comes first, the peptide text is derived from it. Bridges are numbered along the chain shown (N, C = ends). Roman numbers before positions name the chains, in order. [ ]: non-standard residue; d: D form. Actinocin(1to9) = Cc1c2oc3c(C)ccc(C(=O)[*:2])c3nc-2c(C(=O)[*:1])c(N)c1=O; NMeV = CN[C@H](C(=O)O)C(C)C; Sar = CNCC(=O)O
Legend:
[1] = DRUGMATRIX: Sodium/nucleoside co-transporter radioligand binding (ligand: nitrobenzylthioinosine); type: cell membranes, Cavia porcellus, Dunkin-Hartley, Cerebral cortex, Membrane; conditions: Not Active = under 50% inhibition at 10 µM
Substance-K receptor = target: T1, Substance-K receptor (Homo sapiens, UniProt P21452); type: cell membranes, CHO, Membrane; conditions: cho; note: in other assays of this panel Not Active means under 50% inhibition at 10 µM
T1 sequence (P21452 whole entry): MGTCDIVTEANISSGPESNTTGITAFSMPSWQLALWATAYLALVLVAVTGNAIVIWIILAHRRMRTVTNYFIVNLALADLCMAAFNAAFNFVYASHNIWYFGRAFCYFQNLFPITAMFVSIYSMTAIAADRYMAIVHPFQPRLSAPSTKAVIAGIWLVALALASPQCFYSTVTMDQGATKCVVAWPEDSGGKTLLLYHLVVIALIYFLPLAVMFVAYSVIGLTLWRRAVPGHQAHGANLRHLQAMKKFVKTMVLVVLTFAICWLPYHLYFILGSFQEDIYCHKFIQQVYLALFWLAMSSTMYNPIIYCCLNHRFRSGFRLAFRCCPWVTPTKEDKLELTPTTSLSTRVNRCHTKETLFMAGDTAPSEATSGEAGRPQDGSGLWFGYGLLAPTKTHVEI

Insulin receptor = Insulin receptor (Rattus norvegicus, UniProt P15127); type: cell membranes, Wistar, Liver, Membrane; note: in other assays of this panel Not Active means under 50% inhibition at 10 µM
Insulin receptor, sequence (P15127 27-759 limits assumed): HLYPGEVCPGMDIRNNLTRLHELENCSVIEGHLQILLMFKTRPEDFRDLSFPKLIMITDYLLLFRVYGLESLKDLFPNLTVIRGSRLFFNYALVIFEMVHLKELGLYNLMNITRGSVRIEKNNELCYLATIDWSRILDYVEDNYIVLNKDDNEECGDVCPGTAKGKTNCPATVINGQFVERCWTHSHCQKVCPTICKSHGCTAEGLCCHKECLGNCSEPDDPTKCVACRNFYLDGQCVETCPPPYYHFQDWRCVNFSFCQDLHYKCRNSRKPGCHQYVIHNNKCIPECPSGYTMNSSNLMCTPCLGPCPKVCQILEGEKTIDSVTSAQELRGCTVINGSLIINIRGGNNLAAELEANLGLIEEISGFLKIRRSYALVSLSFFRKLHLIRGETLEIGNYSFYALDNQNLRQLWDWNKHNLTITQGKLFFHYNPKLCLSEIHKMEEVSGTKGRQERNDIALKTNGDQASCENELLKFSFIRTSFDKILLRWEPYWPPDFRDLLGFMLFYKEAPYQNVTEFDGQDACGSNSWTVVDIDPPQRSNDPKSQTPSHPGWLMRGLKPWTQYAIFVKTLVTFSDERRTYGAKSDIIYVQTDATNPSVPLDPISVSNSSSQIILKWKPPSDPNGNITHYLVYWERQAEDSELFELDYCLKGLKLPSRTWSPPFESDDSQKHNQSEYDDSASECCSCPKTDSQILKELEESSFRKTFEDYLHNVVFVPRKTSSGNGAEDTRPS
Insulin receptor, sequence (P15127 764-1383 limits assumed): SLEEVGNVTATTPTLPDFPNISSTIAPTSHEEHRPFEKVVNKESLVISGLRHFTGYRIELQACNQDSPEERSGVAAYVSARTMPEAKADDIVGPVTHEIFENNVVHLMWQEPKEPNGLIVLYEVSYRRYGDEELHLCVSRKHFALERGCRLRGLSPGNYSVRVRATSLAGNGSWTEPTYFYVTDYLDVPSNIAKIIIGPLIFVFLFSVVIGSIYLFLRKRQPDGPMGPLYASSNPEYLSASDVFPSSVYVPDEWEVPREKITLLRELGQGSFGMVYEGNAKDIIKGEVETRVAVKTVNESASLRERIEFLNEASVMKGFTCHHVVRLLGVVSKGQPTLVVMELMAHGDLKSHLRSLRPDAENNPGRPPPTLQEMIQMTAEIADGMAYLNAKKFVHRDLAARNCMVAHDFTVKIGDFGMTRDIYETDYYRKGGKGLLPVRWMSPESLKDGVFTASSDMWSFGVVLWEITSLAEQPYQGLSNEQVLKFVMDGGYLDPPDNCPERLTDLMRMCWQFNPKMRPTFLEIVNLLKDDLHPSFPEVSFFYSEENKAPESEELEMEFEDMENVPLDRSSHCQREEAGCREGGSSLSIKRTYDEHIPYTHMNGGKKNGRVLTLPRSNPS

Melanocortin receptor 5 = Melanocortin receptor 5 (Homo sapiens, UniProt P33032); type: cell membranes, HEK293, Membrane; conditions: hek293; note: in other assays of this panel Not Active means under 50% inhibition at 10 µM
Melanocortin receptor 5, sequence (P33032 whole entry): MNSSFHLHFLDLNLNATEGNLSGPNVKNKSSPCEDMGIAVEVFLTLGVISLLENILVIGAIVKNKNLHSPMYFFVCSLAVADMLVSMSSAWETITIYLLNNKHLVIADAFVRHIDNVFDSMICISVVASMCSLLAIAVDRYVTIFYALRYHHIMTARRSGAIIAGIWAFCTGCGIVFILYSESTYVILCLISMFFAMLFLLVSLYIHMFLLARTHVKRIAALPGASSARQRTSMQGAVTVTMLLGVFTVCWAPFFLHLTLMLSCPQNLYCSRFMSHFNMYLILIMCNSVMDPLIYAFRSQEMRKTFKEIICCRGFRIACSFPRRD

[2] = DRUGMATRIX: Phosphodiesterase PDE4 enzyme inhibition (substrate: [3H]cAMP + cAMP); conditions: u-937, Not Active = under 50% inhibition at 10 µM
Interstitial collagenase = target: T2, Interstitial collagenase (Homo sapiens, UniProt P03956); test: biochemical; type: tissue-based, Rheumatoid synovial fibroblasts;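 note: MMP-1 enzyme inhibition assay using a peptide substrate; in other assays of this panel Not Active means under 50% inhibition at 10 µM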
T2 sequence (P03956 whole entry): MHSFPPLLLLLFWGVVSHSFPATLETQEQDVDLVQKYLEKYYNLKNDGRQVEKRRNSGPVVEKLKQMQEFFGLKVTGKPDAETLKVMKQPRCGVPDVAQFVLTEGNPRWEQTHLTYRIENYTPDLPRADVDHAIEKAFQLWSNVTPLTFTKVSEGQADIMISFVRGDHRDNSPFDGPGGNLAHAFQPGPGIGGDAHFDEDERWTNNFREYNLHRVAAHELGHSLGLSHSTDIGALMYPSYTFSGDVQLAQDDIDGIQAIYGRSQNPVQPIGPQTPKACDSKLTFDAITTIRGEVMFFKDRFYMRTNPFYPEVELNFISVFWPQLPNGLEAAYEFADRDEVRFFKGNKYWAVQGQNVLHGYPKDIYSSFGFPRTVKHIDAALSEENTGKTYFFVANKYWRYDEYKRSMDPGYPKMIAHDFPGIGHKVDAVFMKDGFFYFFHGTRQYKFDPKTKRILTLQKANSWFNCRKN

[3] = target: Voltage-gated inwardly rectifying potassium channel KCNH2 (Homo sapiens, UniProt Q12809); conditions: hek293; note: in other assays of this panel Not Active means under 50% inhibition at 10 µM
Voltage-gated inwardly rectifying potassium channel KCNH2, sequence (Q12809 whole entry): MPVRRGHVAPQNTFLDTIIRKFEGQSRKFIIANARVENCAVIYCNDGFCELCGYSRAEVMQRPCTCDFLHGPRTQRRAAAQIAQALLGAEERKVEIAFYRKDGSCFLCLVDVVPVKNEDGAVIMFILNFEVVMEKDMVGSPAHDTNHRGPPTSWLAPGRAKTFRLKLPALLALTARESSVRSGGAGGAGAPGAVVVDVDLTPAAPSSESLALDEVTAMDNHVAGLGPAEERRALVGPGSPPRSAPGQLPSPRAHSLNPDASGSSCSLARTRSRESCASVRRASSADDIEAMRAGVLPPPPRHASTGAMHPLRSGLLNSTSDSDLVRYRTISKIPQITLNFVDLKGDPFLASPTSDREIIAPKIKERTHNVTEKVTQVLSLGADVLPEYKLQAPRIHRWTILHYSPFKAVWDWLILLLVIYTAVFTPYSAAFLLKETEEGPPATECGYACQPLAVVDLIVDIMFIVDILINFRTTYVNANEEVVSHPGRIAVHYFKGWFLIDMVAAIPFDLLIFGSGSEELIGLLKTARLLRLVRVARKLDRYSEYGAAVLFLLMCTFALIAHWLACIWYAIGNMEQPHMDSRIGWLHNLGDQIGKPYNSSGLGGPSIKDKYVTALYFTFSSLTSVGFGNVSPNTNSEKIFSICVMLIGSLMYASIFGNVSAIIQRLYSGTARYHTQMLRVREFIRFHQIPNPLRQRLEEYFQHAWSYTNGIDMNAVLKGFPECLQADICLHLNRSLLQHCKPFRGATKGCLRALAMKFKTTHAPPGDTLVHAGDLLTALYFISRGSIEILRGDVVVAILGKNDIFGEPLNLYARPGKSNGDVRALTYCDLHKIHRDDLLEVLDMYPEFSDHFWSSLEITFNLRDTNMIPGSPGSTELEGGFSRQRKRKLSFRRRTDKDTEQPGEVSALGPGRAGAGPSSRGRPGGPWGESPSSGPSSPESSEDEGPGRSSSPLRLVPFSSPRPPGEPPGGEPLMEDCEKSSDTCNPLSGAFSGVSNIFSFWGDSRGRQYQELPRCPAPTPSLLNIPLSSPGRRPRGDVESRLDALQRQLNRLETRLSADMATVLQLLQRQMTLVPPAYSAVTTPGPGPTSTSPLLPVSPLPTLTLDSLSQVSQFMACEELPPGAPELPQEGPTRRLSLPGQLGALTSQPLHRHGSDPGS

Compound | IC50 [1] | Ki [1] | IC50 (Substance-K receptor) | IC50 (Insulin receptor) | IC50 (Melanocortin receptor 5) | IC50 [2] | Ki [2] | IC50 (Interstitial collagenase) | IC50 [3] | Ki [3] | pIC50 ([2]; read-out: IC50)
c1ccc2c(c1)c1cccc3ccc4cccc2c4c31 [BENZO[E]PYRENE] | Not Active | Not Active | Not Active | Not Active | Not Active | Not Active | Not Active | Not Active | Not Active | Not Active | 
CNCCc1ccccn1 [BETAHISTINE] | Not Active | Not Active | Not Active | Not Active | Not Active | Not Active | Not Active | Not Active | Not Active | Not Active | 
CC(C)C(Br)C(=O)NC(N)=O (centres undefined) [BROMISOVALUM] | Not Active | Not Active | Not Active | Not Active | Not Active | Not Active | Not Active | Not Active | Not Active | Not Active | 
CCCC1O[C@@H]2C[C@H]3[C@@H]4CCC5=CC(=O)C=C[C@]5(C)[C@H]4[C@@H](O)C[C@]3(C)[C@]2(C(=O)CO)O1 (some centres undefined) [BUDESONIDE] | Not Active | Not Active | Not Active | Not Active | Not Active | Not Active | Not Active | Not Active | Not Active | Not Active | 
CN(Cc1ccc(C(C)(C)C)cc1)Cc1cccc2ccccc12 [BUTENAFINE] | Not Active | Not Active | Not Active | Not Active | Not Active | Not Active | Not Active | Not Active | Not Active | Not Active | 
C[C@H](CS)C(=O)N1CCC[C@H]1C(=O)O [CAPTOPRIL] | Not Active | Not Active | Not Active | Not Active | Not Active | Not Active | Not Active | Not Active | Not Active | Not Active | 
Cc1ccc(-c2cc(C(F)(F)F)nn2-c2ccc(S(N)(=O)=O)cc2)cc1 [CELECOXIB] | Not Active | Not Active | Not Active | Not Active | Not Active |  |  | Not Active | Not Active | Not Active | 5.03
O=C(O)CCCc1ccc(N(CCCl)CCCl)cc1 [CHLORAMBUCIL] | Not Active | Not Active | Not Active | Not Active | Not Active | Not Active | Not Active | Not Active | Not Active | Not Active | 
C[C@H](CCC(=O)O)[C@H]1CC[C@H]2[C@@H]3[C@H](O)C[C@@H]4C[C@H](O)CC[C@]4(C)[C@H]3C[C@H](O)[C@]12C [CHOLIC ACID] | Not Active | Not Active | Not Active | Not Active | Not Active | Not Active | Not Active | Not Active | Not Active | Not Active | 
Cc1cc(C2CCCCC2)n(O)c(=O)c1 [CICLOPIROX] | Not Active | Not Active | Not Active | Not Active | Not Active | Not Active | Not Active | Not Active | Not Active | Not Active | 
CC1=C2C(=CO[C@H](C)[C@H]2C)C(O)=C(C(=O)O)C1=O [CITRININ] | Not Active | Not Active | Not Active | Not Active | Not Active | Not Active | Not Active | Not Active | Not Active | Not Active | 
CC(C)(C)NCC(O)c1cc(Cl)c(N)c(Cl)c1 (centres undefined) [CLENBUTEROL] | Not Active | Not Active | Not Active | Not Active | Not Active | Not Active | Not Active | Not Active | Not Active | Not Active | 
CC(C)(Oc1ccc(Cl)cc1)C(=O)O [CLOFIBRIC ACID] | Not Active | Not Active | Not Active | Not Active | Not Active | Not Active | Not Active | Not Active | Not Active | Not Active | 
Clc1cccc(Cl)c1NC1=NCCN1 [CLONIDINE] | Not Active | Not Active | Not Active | Not Active | Not Active | Not Active | Not Active | Not Active | Not Active | Not Active | 
Cc1cc(C(C#N)c2ccc(Cl)cc2)c(Cl)cc1NC(=O)c1cc(I)cc(I)c1O (centres undefined) [CLOSANTEL] | Not Active | Not Active | Not Active | Not Active | Not Active | Not Active | Not Active | Not Active | Not Active | Not Active | 
Cc1onc(-c2ccccc2Cl)c1C(=O)N[C@@H]1C(=O)N2[C@@H]1SC(C)(C)[C@@H]2C(=O)O [CLOXACILLIN] | Not Active | Not Active | Not Active | Not Active | Not Active | Not Active | Not Active | Not Active | Not Active | Not Active | 
CC1CC(OC(=O)C(O)c2ccccc2)CC(C)(C)C1 (centres undefined) [CYCLANDELATE] | Not Active | Not Active | Not Active | Not Active | Not Active | Not Active | Not Active | Not Active | Not Active | Not Active | 
Cc1c2oc3c(C)ccc(C(=O)N[C@@H]4C(=O)N[C@H](C(C)C)C(=O)N5CCC[C@H]5C(=O)N(C)CC(=O)N(C)[C@@H](C(C)C)C(=O)O[C@@H]4C)c3nc-2c(C(=O)N[C@@H]2C(=O)N[C@H](C(C)C)C(=O)N3CCC[C@H]3C(=O)N(C)CC(=O)N(C)[C@@H](C(C)C)C(=O)O[C@@H]2C)c(N)c1=O [DACTINOMYCIN] (I: T[dV]P[Sar][NMeV] / II: T[dV]P[Sar][NMeV]; ester I:1-I:C, II:1-II:C; linker I:N-II:N via Actinocin(1to9)) | Not Active | Not Active | Not Active | Not Active | Not Active | Not Active | Not Active | Not Active | Not Active | Not Active | 
Cc1c(O)c(=O)ccn1C [DEFERIPRONE] | Not Active | Not Active | Not Active | Not Active | Not Active | Not Active | Not Active | Not Active | Not Active | Not Active | 
O=c1oc2ccccc2c(O)c1Cc1c(O)c2ccccc2oc1=O [DICUMAROL] | Not Active | Not Active | Not Active | Not Active | Not Active | Not Active | Not Active | Not Active | Not Active | Not Active | 
C[C@H]1O[C@@H](O[C@H]2[C@@H](O)C[C@H](O[C@H]3[C@@H](O)C[C@H](O[C@H]4CC[C@@]5(C)[C@H](CC[C@@H]6[C@@H]5C[C@@H](O)[C@]5(C)[C@@H](C7=CC(=O)OC7)CC[C@]65O)C4)O[C@@H]3C)O[C@@H]2C)C[C@H](O)[C@@H]1O [DIGOXIN] | Not Active | Not Active | Not Active | Not Active | Not Active | Not Active | Not Active | Not Active | Not Active | Not Active | 
CC(C)[C@@]1(NC(=O)[C@@H]2C[C@@H]3c4cccc5[nH]cc(c45)C[C@H]3N(C)C2)O[C@@]2(O)[C@@H]3CCCN3C(=O)[C@H](Cc3ccccc3)N2C1=O.CS(=O)(=O)O [DIHYDROERGOCRISTINE MESYLATE] | Not Active | Not Active | Not Active | Not Active | Not Active | Not Active | Not Active | Not Active | Not Active | Not Active | 
